How the values were obtained:
Assay type in all cases: in vivo
[1] = system: southern armyworm (SA) larvae; assay: Spray test, southern armyworm (SA) larvae on bean leaves; conditions: approx. 48 h after spraying
Procedure: (§1) Three 5 oz paper cups containing Henderson dwarf lima bean plants and one 5 oz paper cup containing Orange Gem nasturtiums, all growing in vermiculite, are placed on a turntable and sprayed to thorough wetness with 25 ml of a solution of the candidate chemical at the appropriate concentration. Nasturtiums were already infested with 50-100 bean aphids (BA). A bean plant in one paper cup was already infested with 50-100 two-spotted mites (TSM). Leaves from the two remaining bean plants are removed following spraying and placed in disposable petri dishes with 5 southern armyworm (SA) larvae in one petri dish, and 5 Mexican bean beetle (MBB) larvae in the other petri dish. The rating is done approximately 48 hours after spraying as follows:
(§2) So as to obtain more meaningful results, all tests are performed at the same time of day, whenever possible, usually in the forenoon. Temperature,illumination and humidity are the same in all tests. Atmospheric pressure is not controlled.
(§3) Results obtained with the novel insecticides of this invention at various concentrations of active chemical are tabulated below. The ratings given are for averages of three or more replicates. The oral lethal dose for 50 percent kill of laboratory rats is also recorded in the table. In conducting the toxicity tests on rats, 0.01 g of active chemical per ml in corn oil is employed as an additive to the diet of the animals.

two-spotted mites (TSM) = assay: Spray test, two-spotted mites (TSM) on bean plants; conditions: 500 ppm; approx. 48 h after spraying
Procedure: as §1, §2, §3

[2] = system: Southern Corn Rootworm (SCR); assay: Southern Corn Rootworm (SCR) soil treatment test, root feeding damage on corn; design: scale not given here; conditions: nine days after treatment
Procedure: Three 5 oz paper cups planted each with one kernel of DeKalb XL-361 corn are treated two days after planting with 10 ml of a 125 ppm solution of the candidate compound. Compounds with high efficacy are treated at lower concentrations. The experiment is a 4×5 factorial in a randomized complete block design with three replications. The tests are evaluated nine days after treatment. The roots are inspected under a dissecting microscope and rated as follows:
as §2, §3

bean aphids (BA) = assay: Spray test, bean aphids (BA) on nasturtiums; conditions: approx. 48 h after spraying
Procedure: as §1, §2, §3

[3] = system: Mexican bean beetle (MBB) larvae; assay: Spray test, Mexican bean beetle (MBB) larvae on bean leaves; conditions: approx. 48 h after spraying
Procedure: as §1, §2, §3

SMILES | SA rating (larvae dead) ([1]; 500 ppm) | TSM rating (dead adults) (two-spotted mites (TSM)) | SCR Rating (root feeding damage) ([2]; 50 ppm) | SCR Rating (root feeding damage) ([2]; 100 ppm) | BA rating (dead) (bean aphids (BA); 2 ppm) | BA rating (dead) (bean aphids (BA); 4 ppm) | BA rating (dead) (bean aphids (BA); 8 ppm) | BA rating (dead) (bean aphids (BA); 15 ppm) | BA rating (dead) (bean aphids (BA); 31 ppm) | BA rating (dead) (bean aphids (BA); 62 ppm) | BA rating (dead) (bean aphids (BA); 125 ppm) | BA rating (dead) (bean aphids (BA); 250 ppm) | BA rating (dead) (bean aphids (BA); 500 ppm) | MBB rating (larvae dead) ([3]; 500 ppm) | also measured
C#CCSc1nc(CCC)nn1C(=O)N(C)C [R=2-propynyl, R'=propyl] | 5 (100% larvae dead) | 0 (no dead adults) | 2.7 | 3.7 | 0 (none dead) | 0 (none dead) | 1 (1-25% dead) | 5 (100% dead) | 5 (100% dead) | 5 (100% dead) | 5 (100% dead) | 5 (100% dead) | 5 (100% dead) | 5 (100% larvae dead) | SA rating (larvae dead) ([1]; 15 ppm): 0 (no larvae dead); SA rating (larvae dead) ([1]; 31 ppm): 0 (no larvae dead); SA rating (larvae dead) ([1]; 62 ppm): 0 (no larvae dead); SA rating (larvae dead) ([1]; 125 ppm): 0 (no larvae dead); SA rating (larvae dead) ([1]; 250 ppm): 0 (no larvae dead); SCR Rating (root feeding damage) ([2]; 25 ppm): 1.3; MBB rating (larvae dead) ([3]; 15 ppm): 0 (no larvae dead); MBB rating (larvae dead) ([3]; 31 ppm): 1 (1 -25% larvae dead); MBB rating (larvae dead) ([3]; 62 ppm): 3 (51-75% larvae dead); MBB rating (larvae dead) ([3]; 125 ppm): 5 (100% larvae dead); MBB rating (larvae dead) ([3]; 250 ppm): 5 (100% larvae dead)
C=C(C)CSc1nc(C(C)(C)C)nn1C(=O)N(C)C [R=2-methylallyl, R'=tert.butyl] | 0 (no larvae dead) | 0 (no dead adults) |  | 1.3 | 1 (1-25% dead) | 4 (76-99% dead) | 4 (76-99% dead) | 5 (100% dead) | 5 (100% dead) | 5 (100% dead) | 5 (100% dead) | 5 (100% dead) | 5 (100% dead) | 2 (26-50% larvae dead) | 
C=C(Cl)CSc1nc(C(C)(C)C)nn1C(=O)N(C)C [R=2-chloroallyl, R'=tert.butyl] | 0 (no larvae dead) | 0 (no dead adults) |  |  | 4 (76-99% dead) | 4 (76-99% dead) | 4 (76-99% dead) | 5 (100% dead) | 5 (100% dead) | 5 (100% dead) | 5 (100% dead) | 5 (100% dead) | 5 (100% dead) | 2 (26-50% larvae dead) | 
CN(C)C(=O)n1nc(C(C)(C)C)nc1SCC(Cl)=C(Cl)Cl [R=2,3,3-trichloro-allyl, R'=tert.butyl] | 0 (no larvae dead) | 0 (no dead adults) |  |  | 3 (51-75% dead) | 3 (51-75% dead) | 4 (76-99% dead) | 5 (100% dead) | 5 (100% dead) | 5 (100% dead) | 5 (100% dead) | 5 (100% dead) | 4 (76-99% dead) | 0 (no larvae dead) | 
C=C(Br)CSc1nc(C2CC2)nn1C(=O)N(C)C | 0 (no larvae dead) | 2 (26-50% dead adults) | 0.3 | 4.3 |  | 0 (none dead) | 2 (26-50% dead) | 4 (76-99% dead) | 5 (100% dead) | 5 (100% dead) | 5 (100% dead) | 5 (100% dead) | 5 (100% dead) | 2 (26-50% larvae dead) | 

Reference: patent publication US4160839A, “Carbamyltriazole insecticides” (priority 1976, dated 1979)
